From ChEMBL document CHEMBL3885881, “DrugMatrix”

Organism: Rattus norvegicus
Assay: DrugMatrix - Regimen: Daily Repeat
Format: toxicity, organism-based, Sprague-Dawley
Parameters: regimen Daily Repeat, gender Male, age 6-8 weeks
Conditions: in vivo, po, route oral GAVAGE, vehicle .5 % CMC; for ABSOLUTE BASOPHIL / ABSOLUTE EOSINOPHIL / ABSOLUTE LYMPHOCYTE / ABSOLUTE MONOCYTE / ABSOLUTE SEGMENTED NEUTROPHIL / BASOPHIL / EOSINOPHIL / ERYTHROCYTE COUNT / HEMATOCRIT / HEMOGLOBIN / LEUKOCYTE COUNT / LYMPHOCYTE / MEAN CORPUSCULAR HEMOGLOBIN / MEAN CORPUSCULAR HEMOGLOBIN CONCENTRATION / MEAN CORPUSCULAR VOLUME / MONOCYTE / NEUTROPHIL / NUCLEATED RED BLOOD CELLS / PLATELET COUNT: tissue Blood; for ALANINE AMINOTRANSFERASE / ALBUMIN / ALKALINE PHOSPHATASE / ASPARTATE AMINOTRANSFERASE / BLOOD UREA NITROGEN / CARBON DIOXIDE / CHLORIDE / CHOLESTEROL / CREATINE PHOSPHOKINASE / CREATININE / GLUCOSE / LACTATE DEHYDROGENASE / LIPASE / PHOSPHORUS / POTASSIUM / SODIUM / TOTAL BILIRUBIN / TOTAL PROTEIN / URIC ACID: tissue Plasma
[1] = 0.0001 mg/kg, 72 h, dose level Low, time 3 day
[2] = 0.0001 mg/kg, 120 h, dose level Low, time 5 day
[3] = […], 72 h, dose 0.043 mg/Kg, dose level High, time 3 day
[4] = […], 120 h, dose 0.043 mg/Kg, dose level High, time 5 day

C=C1/C(=C\C=C2/CCC[C@]3(C)[C@@H]([C@H](C)CCCC(C)C)CC[C@@H]23)C[C@@H](O)C[C@@H]1O [ALFACALCIDOL]
ABSOLUTE BASOPHIL [1]: 0 CELLS/uL | ABSOLUTE EOSINOPHIL [1]: 140 CELLS/uL | ABSOLUTE LYMPHOCYTE [1]: 12178.67 CELLS/uL | ABSOLUTE MONOCYTE [1]: 352 CELLS/uL | ABSOLUTE SEGMENTED NEUTROPHIL [1]: 1262.67 CELLS/uL | BASOPHIL [1]: 0% | EOSINOPHIL [1]: 1% | ERYTHROCYTE COUNT [1]: 6.05 x10E6/uL | HEMATOCRIT [1]: 38.07% | HEMOGLOBIN [1]: 14.23 G/DL | LEUKOCYTE COUNT [1]: 13.93 x10E3/uL | LYMPHOCYTE [1]: 87.33% | MEAN CORPUSCULAR HEMOGLOBIN [1]: 23.6 pg | MEAN CORPUSCULAR HEMOGLOBIN CONCENTRATION [1]: 37.4 G/DL | MEAN CORPUSCULAR VOLUME [1]: 63.03 fL | MONOCYTE [1]: 2.67% | NEUTROPHIL [1]: 9% | NUCLEATED RED BLOOD CELLS [1]: 0.33 /100WBC | PLATELET COUNT [1]: 1202.33 x10E3/uL | ALANINE AMINOTRANSFERASE [1]: 48.33 u/L | ALBUMIN [1]: 4.17 G/DL | ALKALINE PHOSPHATASE [1]: 299.33 u/L | ASPARTATE AMINOTRANSFERASE [1]: 81 u/L | BLOOD UREA NITROGEN [1]: 17 mg/dL | CARBON DIOXIDE [1]: 24.67 mmol/L | CHLORIDE [1]: 103.5 MEQ/L | CHOLESTEROL [1]: 65 mg/dL | CREATINE PHOSPHOKINASE [1]: 332 u/L | CREATININE [1]: 0.2 mg/dL | GLUCOSE [1]: 178.67 mg/dL | LACTATE DEHYDROGENASE [1]: 142.33 u/L | LIPASE [1]: 9.33 u/L | PHOSPHORUS [1]: 12.17 mg/dL | POTASSIUM [1]: 6.03 MEQ/L | SODIUM [1]: 146.55 MEQ/L | TOTAL BILIRUBIN [1]: 0.23 mg/dL | TOTAL PROTEIN [1]: 5.83 G/DL | URIC ACID [1]: 1.77 mg/dL | ABSOLUTE BASOPHIL [2]: 0 CELLS/uL | ABSOLUTE EOSINOPHIL [2]: 164 CELLS/uL | ABSOLUTE LYMPHOCYTE [2]: 10288.67 CELLS/uL | ABSOLUTE MONOCYTE [2]: 193 CELLS/uL | ABSOLUTE SEGMENTED NEUTROPHIL [2]: 1121 CELLS/uL | BASOPHIL [2]: 0% | EOSINOPHIL [2]: 1.33% | ERYTHROCYTE COUNT [2]: 5.95 x10E6/uL | HEMATOCRIT [2]: 36.97% | HEMOGLOBIN [2]: 13.63 G/DL | LEUKOCYTE COUNT [2]: 11.77 x10E3/uL | LYMPHOCYTE [2]: 87.33% | MEAN CORPUSCULAR HEMOGLOBIN [2]: 22.9 pg | MEAN CORPUSCULAR HEMOGLOBIN CONCENTRATION [2]: 36.9 G/DL | MEAN CORPUSCULAR VOLUME [2]: 62.07 fL | MONOCYTE [2]: 1.67% | NEUTROPHIL [2]: 9.67% | NUCLEATED RED BLOOD CELLS [2]: 0 /100WBC | PLATELET COUNT [2]: 1179 x10E3/uL | ALANINE AMINOTRANSFERASE [2]: 40.33 u/L | ALBUMIN [2]: 4.23 G/DL | ALKALINE PHOSPHATASE [2]: 369.33 u/L | ASPARTATE AMINOTRANSFERASE [2]: 94.33 u/L | BLOOD UREA NITROGEN [2]: 21 mg/dL | CARBON DIOXIDE [2]: 26.67 mmol/L | CHLORIDE [2]: 105 MEQ/L | CHOLESTEROL [2]: 57.33 mg/dL | CREATINE PHOSPHOKINASE [2]: 399 u/L | CREATININE [2]: 0.21 mg/dL | GLUCOSE [2]: 158.33 mg/dL | LACTATE DEHYDROGENASE [2]: 716.33 u/L | LIPASE [2]: 8.33 u/L | PHOSPHORUS [2]: 11.8 mg/dL | POTASSIUM [2]: 5.72 MEQ/L | SODIUM [2]: 145.1 MEQ/L | TOTAL BILIRUBIN [2]: 0.13 mg/dL | TOTAL PROTEIN [2]: 5.9 G/DL | URIC ACID [2]: 1.3 mg/dL | ABSOLUTE BASOPHIL [3]: 0 CELLS/uL | ABSOLUTE EOSINOPHIL [3]: 333 CELLS/uL | ABSOLUTE LYMPHOCYTE [3]: 10082 CELLS/uL | ABSOLUTE MONOCYTE [3]: 537.33 CELLS/uL | ABSOLUTE SEGMENTED NEUTROPHIL [3]: 2481 CELLS/uL | BASOPHIL [3]: 0% | EOSINOPHIL [3]: 2.33% | ERYTHROCYTE COUNT [3]: 6 x10E6/uL | HEMATOCRIT [3]: 36.53% | HEMOGLOBIN [3]: 13.9 G/DL | LEUKOCYTE COUNT [3]: 13.43 x10E3/uL | LYMPHOCYTE [3]: 74% | MEAN CORPUSCULAR HEMOGLOBIN [3]: 23.2 pg | MEAN CORPUSCULAR HEMOGLOBIN CONCENTRATION [3]: 38.07 G/DL | MEAN CORPUSCULAR VOLUME [3]: 60.97 fL | MONOCYTE [3]: 4% | NEUTROPHIL [3]: 19.67% | NUCLEATED RED BLOOD CELLS [3]: 0.33 /100WBC | PLATELET COUNT [3]: 1182 x10E3/uL | ALANINE AMINOTRANSFERASE [3]: 54.33 u/L | ALBUMIN [3]: 3.93 G/DL | ALKALINE PHOSPHATASE [3]: 234.67 u/L | ASPARTATE AMINOTRANSFERASE [3]: 99 u/L | BLOOD UREA NITROGEN [3]: 27.67 mg/dL | CARBON DIOXIDE [3]: 26.33 mmol/L | CHLORIDE [3]: 99.67 MEQ/L | CHOLESTEROL [3]: 75.33 mg/dL | CREATINE PHOSPHOKINASE [3]: 379.67 u/L | CREATININE [3]: 0.33 mg/dL | GLUCOSE [3]: 174.33 mg/dL | LACTATE DEHYDROGENASE [3]: 344 u/L | LIPASE [3]: 8.33 u/L | PHOSPHORUS [3]: 12.9 mg/dL | POTASSIUM [3]: 5.6 MEQ/L | SODIUM [3]: 142.27 MEQ/L | TOTAL BILIRUBIN [3]: 0.2 mg/dL | TOTAL PROTEIN [3]: 5.87 G/DL | URIC ACID [3]: 1.57 mg/dL | ABSOLUTE BASOPHIL [4]: 0 CELLS/uL | ABSOLUTE EOSINOPHIL [4]: 110 CELLS/uL | ABSOLUTE LYMPHOCYTE [4]: 15770.33 CELLS/uL | ABSOLUTE MONOCYTE [4]: 383.67 CELLS/uL | ABSOLUTE SEGMENTED NEUTROPHIL [4]: 2702.67 CELLS/uL | BASOPHIL [4]: 0% | EOSINOPHIL [4]: 1% | ERYTHROCYTE COUNT [4]: 6.37 x10E6/uL | HEMATOCRIT [4]: 38.77% | HEMOGLOBIN [4]: 14.5 G/DL | LEUKOCYTE COUNT [4]: 18.97 x10E3/uL | LYMPHOCYTE [4]: 83.33% | MEAN CORPUSCULAR HEMOGLOBIN [4]: 22.77 pg | MEAN CORPUSCULAR HEMOGLOBIN CONCENTRATION [4]: 37.43 G/DL | MEAN CORPUSCULAR VOLUME [4]: 60.83 fL | MONOCYTE [4]: 2% | NEUTROPHIL [4]: 13.67% | NUCLEATED RED BLOOD CELLS [4]: 0 /100WBC | PLATELET COUNT [4]: 1065.33 x10E3/uL | ALANINE AMINOTRANSFERASE [4]: 53.67 u/L | ALBUMIN [4]: 4.5 G/DL | ALKALINE PHOSPHATASE [4]: 245.67 u/L | ASPARTATE AMINOTRANSFERASE [4]: 109.33 u/L | BLOOD UREA NITROGEN [4]: 18 mg/dL | CARBON DIOXIDE [4]: 27 mmol/L | CHLORIDE [4]: 101.67 MEQ/L | CHOLESTEROL [4]: 74.33 mg/dL | CREATINE PHOSPHOKINASE [4]: 756 u/L | CREATININE [4]: 0.12 mg/dL | GLUCOSE [4]: 155.33 mg/dL | LACTATE DEHYDROGENASE [4]: 946.67 u/L | LIPASE [4]: 8.33 u/L | PHOSPHORUS [4]: 12.47 mg/dL | POTASSIUM [4]: 4.95 MEQ/L | SODIUM [4]: 144.83 MEQ/L | TOTAL BILIRUBIN [4]: 0.1 mg/dL | TOTAL PROTEIN [4]: 6.33 G/DL | URIC ACID [4]: 1.5 mg/dL
